# From ChEMBL document CHEMBL1275507, “Genomic analysis reveals a point mutation in the two-component sensor gene graS that leads to intermediate vancomycin resistance in clinical Staphylococcus aureus” (2008)
# Key:
# [1] = tested on: Staphylococcus aureus; assay: Antimicrobial activity against 2 MCF vancomycin-intermediate Staphylococcus aureus isolate JKD6008 by Etest method
# [2] = tested on: Staphylococcus aureus; assay: Antimicrobial activity against 2 mCF Staphylococcus aureus isolate JKD6208 harboring graS T136I mutant gene by Etest method
# [3] = tested on: Staphylococcus aureus; assay: Antimicrobial activity against 2 MCF graRS-deficient Staphylococcus aureus isolate JKD6206 harboring plasmid JKD6151 by Etest method
# [4] = tested on: Staphylococcus aureus; assay: Antimicrobial activity against 2 MCF graRS-deficient Staphylococcus aureus isolate JKD6205 harboring pCu1 plasmid by Etest method
# [5] = tested on: Staphylococcus aureus; assay: Antimicrobial activity against 2 MCF graRS-deficient Staphylococcus aureus isolate JKD6196 by Etest method
smiles,measurement,setting,value
CN[C@H](CC(C)C)C(=O)N[C@H]1C(=O)N[C@@H](CC(N)=O)C(=O)N[C@H]2C(=O)N[C@H]3C(=O)N[C@H](C(=O)N[C@H](C(=O)O)c4cc(O)cc(O)c4-c4cc3ccc4O)[C@H](O)c3ccc(c(Cl)c3)Oc3cc2cc(c3O[C@@H]2O[C@H](CO)[C@@H](O)[C@H](O)[C@H]2O[C@H]2C[C@](C)(N)[C@H](O)[C@H](C)O2)Oc2ccc(cc2Cl)[C@H]1O [VANCOMYCIN],MIC,[1],8 µg/mL
same,MIC,[2],6 µg/mL
same,MIC,[3],3 µg/mL
same,MIC,[4],1.5 µg/mL
same,MIC,[5],1.5 µg/mL
